Drawing on ChEMBL document CHEMBL4020810, “Janus-Associated Kinase 1 (JAK1) Inhibitors as Potential Treatment for Immune Disorders” (ACS Med Chem Lett, 2017), this text covers IC50 for six molecules.

Structures are written as SMILES. Bounds are passed on as bounds.

Test [1] addresses T1, Tyrosine-protein kinase JAK1 (Homo sapiens, UniProt P23458). The test is described as follows: Inhibition of JAK1 in human NCI-H1975 cells assessed as reduction in STAT3 phosphorylation incubated for 2 hrs. It is filed as cell-based.
Test [2] has as its target T2, Tyrosine-protein kinase JAK3 (Homo sapiens, UniProt P52333).
T2 sequence (P52333 whole entry): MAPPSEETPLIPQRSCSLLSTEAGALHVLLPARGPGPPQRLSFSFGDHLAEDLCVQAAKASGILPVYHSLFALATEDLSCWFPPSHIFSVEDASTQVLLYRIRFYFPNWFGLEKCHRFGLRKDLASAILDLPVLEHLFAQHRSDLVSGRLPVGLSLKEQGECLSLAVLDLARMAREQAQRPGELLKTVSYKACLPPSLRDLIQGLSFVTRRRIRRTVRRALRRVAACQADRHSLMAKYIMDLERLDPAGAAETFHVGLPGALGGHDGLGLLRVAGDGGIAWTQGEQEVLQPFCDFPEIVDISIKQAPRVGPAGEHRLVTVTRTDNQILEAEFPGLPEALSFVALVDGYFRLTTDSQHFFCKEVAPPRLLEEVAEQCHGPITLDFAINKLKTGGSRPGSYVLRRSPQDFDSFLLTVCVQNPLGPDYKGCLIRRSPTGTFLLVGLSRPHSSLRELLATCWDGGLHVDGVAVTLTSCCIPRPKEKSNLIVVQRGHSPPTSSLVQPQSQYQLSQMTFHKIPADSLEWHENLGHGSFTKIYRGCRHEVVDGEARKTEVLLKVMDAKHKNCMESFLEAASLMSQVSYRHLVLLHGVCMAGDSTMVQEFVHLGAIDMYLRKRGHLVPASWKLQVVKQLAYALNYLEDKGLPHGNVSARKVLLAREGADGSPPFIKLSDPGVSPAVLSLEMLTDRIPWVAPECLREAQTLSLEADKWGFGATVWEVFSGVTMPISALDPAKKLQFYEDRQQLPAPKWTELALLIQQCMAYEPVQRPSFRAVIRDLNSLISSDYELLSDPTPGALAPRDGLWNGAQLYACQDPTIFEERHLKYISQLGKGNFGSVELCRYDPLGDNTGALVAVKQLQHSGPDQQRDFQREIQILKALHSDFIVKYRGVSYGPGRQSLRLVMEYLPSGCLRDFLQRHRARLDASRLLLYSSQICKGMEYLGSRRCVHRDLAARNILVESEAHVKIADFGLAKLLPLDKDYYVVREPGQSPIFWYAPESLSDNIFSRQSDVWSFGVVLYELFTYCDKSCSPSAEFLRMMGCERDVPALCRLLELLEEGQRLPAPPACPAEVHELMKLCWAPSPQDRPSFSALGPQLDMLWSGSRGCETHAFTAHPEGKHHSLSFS
In words: Inhibition of N-terminal GST fused recombinant JAK3 (781 to 1124 amino acids) (unknown origin) expressed in insect cells using ATP and peptide substrate (5FAM-GEEPLYWSFPAKKK-NH2.

In test [3] the target is T1, Tyrosine-protein kinase JAK1. The test is described as follows: Inhibition of N-terminal GST fused human recombinant JAK1 (866 to 1154 amino acids) expressed in insect cells using ATP and peptide substrate (FITC-C6-KKHTDDGYMPMSPGVA-NH2.

T1 sequence (P23458 whole entry): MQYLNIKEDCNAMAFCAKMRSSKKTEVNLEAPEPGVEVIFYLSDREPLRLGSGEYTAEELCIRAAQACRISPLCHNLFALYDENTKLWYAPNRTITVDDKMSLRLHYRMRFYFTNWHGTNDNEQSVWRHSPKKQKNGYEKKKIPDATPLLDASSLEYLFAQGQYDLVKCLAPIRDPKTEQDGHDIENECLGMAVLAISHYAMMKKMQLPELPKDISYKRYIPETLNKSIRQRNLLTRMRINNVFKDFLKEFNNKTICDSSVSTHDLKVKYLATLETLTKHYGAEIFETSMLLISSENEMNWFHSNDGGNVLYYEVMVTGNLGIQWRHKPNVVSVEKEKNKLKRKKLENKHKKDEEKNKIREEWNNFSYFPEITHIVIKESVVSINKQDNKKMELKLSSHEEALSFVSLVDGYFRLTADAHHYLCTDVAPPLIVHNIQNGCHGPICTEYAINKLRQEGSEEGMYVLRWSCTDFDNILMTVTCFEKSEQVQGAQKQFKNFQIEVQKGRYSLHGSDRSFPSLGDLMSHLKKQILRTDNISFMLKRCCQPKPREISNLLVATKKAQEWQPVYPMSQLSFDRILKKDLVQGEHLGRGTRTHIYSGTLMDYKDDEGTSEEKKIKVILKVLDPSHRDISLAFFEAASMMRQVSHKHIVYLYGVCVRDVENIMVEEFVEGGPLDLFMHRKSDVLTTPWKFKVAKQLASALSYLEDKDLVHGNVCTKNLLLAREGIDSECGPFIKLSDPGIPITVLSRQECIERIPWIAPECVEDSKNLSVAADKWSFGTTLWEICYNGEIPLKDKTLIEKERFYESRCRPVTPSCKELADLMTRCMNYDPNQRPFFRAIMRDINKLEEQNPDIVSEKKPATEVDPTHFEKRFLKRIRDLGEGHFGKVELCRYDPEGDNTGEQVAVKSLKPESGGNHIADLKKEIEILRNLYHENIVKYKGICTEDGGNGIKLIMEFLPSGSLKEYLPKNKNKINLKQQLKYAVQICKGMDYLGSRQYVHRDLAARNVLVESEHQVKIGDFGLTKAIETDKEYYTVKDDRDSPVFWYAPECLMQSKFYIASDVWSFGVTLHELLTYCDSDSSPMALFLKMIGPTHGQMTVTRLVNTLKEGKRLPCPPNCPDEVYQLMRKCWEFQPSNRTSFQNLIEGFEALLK

One may read the IC50 as the concentration needed to halve the response being measured. In the case of `COc1nn(C)cc1Nc1nccc(-c2c[nH]c3c(NC(=O)[C@@H](C)N4CCN(C)C[C@@H]4C)cccc23)n1`, in test [1], the IC50 was found to be 643 nM.

Regarding `COC[C@H](C(=O)Nc1cccc2c(-c3nc(Nc4cn(C)nc4C)ncc3F)c[nH]c12)N1CCN(C)CC1`, the values for the IC50 in test [2], in test [3] and in test [1] were above 30000 nM, below 3 nM and 56.6 nM, respectively.

Regarding `COc1nn(C)cc1Nc1ncc(Cl)c(-c2c[nH]c3c(NC(=O)[C@@H](C)N4CCN(C)CC4)cccc23)n1`, in test [1], the 50% inhibitory concentration (IC50) was 57.9 nM.

Turning to `CCOc1nn(C)cc1Nc1ncc(F)c(-c2c[nH]c3c(NC(=O)[C@H](C)N4CCN(C)C[C@@H]4C)cccc23)n1`, the IC50 in test [1] was above 3000 nM.

As for `CCOc1nn(C)cc1Nc1ncc(C)c(-c2c[nH]c3c(NC(=O)[C@@H](CC)N4CCN(C)CC4)cccc23)n1`, the values for the IC50 in test [2], in test [3] and in test [1] were above 30000 nM, below 6 nM and 104 nM, respectively.

Turning to `CC[C@H](C(=O)Nc1cccc2c(-c3nc(Nc4cn(C)nc4C)ncc3F)c[nH]c12)N1CCN(C)CC1`, the IC50 in test [2] is above 30000 nM; in test [3], below 4 nM; in test [1], 75.1 nM.
